Results from patent publication US20140350029A1 (DAINIPPON SUMITOMO PHARMA CO., LTD., priority 2011, published 2014).

Experiments:
[1] = biological target: histamine H1 receptor (Homo sapiens, UniProt P35367); conditions: background statement; cited from earlier work
[2] = biological target: T1, Dopamine D4 receptor (Homo sapiens, UniProt P21917); assay: In vitro receptor binding, dopamine D4; conditions: cloned cells expressing human receptors; read-out: Binding Affinities (Ki; nM) Dopamine D4
T1 sequence (P21917 1-419): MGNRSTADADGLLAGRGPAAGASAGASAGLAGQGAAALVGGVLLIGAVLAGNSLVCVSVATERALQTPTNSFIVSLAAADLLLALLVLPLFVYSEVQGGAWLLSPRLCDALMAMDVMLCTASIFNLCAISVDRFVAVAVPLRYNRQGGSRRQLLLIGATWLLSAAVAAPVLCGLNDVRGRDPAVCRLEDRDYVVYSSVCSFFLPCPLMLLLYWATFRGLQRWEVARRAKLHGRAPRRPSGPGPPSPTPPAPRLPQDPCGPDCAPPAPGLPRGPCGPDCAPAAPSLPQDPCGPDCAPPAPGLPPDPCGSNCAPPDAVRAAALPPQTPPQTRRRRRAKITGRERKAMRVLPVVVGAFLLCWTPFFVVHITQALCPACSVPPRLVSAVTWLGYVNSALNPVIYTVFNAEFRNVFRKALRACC
Method: Functional assays were carried out to analyze the binding affinity and effect on receptor function for dopamine D1-D4 receptor subtypes, serotonin 5-HT1A, 5-HT2A, 5-HT2C, 5-HT6, 5-HT7, norepinephrine α1, α2A, α2C, histamine H1 receptors, and muscarinic M1 receptors.

[3] = test system: patients with bipolar I depression; assay: Lurasidone monotherapy for bipolar I depression, 6-week study, efficacy; type: in vivo, human; conditions: for MADRS effect size vs PBO / MADRS score reduction (change from baseline, MMRM) / reduction in CGI-BP-S depression scores (MMRM): week 6
Method: Changes from DB baseline (DB-BL) to week 6 in MADRS and CGI-bipolar severity (CGI-BP-S) depression scores, respectively, were analyzed using mixed model for repeated measures (MMRM). Additional secondary outcome measures, e.g., Sheehan Disability Scale (SDS), were analyzed using analysis of covariance, last observation carried forward (ANCOVA-LOCF), or logistic regression.

[4] = biological target: Histamine H1 receptor (Cavia porcellus, UniProt P31389); assay: In vitro receptor binding, histamine H1 (guinea pig)
[5] = test system: patients with schizophrenia; assay: Quality of Well-Being (QWB-SA), 6-week placebo-controlled study; type: in vivo, human; conditions: 80 mg and 160 mg lurasidone per day, 6 weeks
Method: Quality of Well-Being (QWB) was measured according to the procedures well-established in the art. The QWB was a self administered questionnaire (QWB-SA), where the combined score ranged from 0 to 1.0 (death to optimal functioning). A patient diagnosed with schizophrenia answered five sections assessing the presence/absence of 19 chronic symptoms or problems, physical symptoms, and mental health symptoms and behaviors as well as an assessment of a person's mobility, physical activity and social activity including completion of role expectations. […] In addition, the relationship between other indicators of therapy outcome, for example, cognitive composite scores, PANSS scores, Negative Symptom Assessment Scale scores (NSA), and Montgomery-Asberg Depression Rating Scale scores (MADRS), was evaluated in relation to quality of life, as assessed by the QWB-SA. […] In addition, partial correlations were found between improvement of QWB-SA and PANSS scores, QWB-SA and MADE scores, QWB-SA and NSA scores, and QWB-SA and cognitive composite scores.

Histamine H1 receptor, sequence (P31389 whole entry): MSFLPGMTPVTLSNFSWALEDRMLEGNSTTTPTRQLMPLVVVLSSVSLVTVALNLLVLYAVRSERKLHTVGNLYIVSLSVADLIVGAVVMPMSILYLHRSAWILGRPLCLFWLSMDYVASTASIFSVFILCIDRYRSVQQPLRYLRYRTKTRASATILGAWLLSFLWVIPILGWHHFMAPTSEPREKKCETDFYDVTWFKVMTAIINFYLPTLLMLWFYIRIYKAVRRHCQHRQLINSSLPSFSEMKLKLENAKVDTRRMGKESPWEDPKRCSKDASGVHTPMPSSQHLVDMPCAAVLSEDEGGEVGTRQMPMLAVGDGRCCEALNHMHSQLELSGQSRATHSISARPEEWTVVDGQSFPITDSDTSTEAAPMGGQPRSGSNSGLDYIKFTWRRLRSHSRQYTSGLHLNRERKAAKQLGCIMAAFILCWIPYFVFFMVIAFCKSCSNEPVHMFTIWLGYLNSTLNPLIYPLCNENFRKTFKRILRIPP
histamine H1 receptor, sequence (P35367 whole entry): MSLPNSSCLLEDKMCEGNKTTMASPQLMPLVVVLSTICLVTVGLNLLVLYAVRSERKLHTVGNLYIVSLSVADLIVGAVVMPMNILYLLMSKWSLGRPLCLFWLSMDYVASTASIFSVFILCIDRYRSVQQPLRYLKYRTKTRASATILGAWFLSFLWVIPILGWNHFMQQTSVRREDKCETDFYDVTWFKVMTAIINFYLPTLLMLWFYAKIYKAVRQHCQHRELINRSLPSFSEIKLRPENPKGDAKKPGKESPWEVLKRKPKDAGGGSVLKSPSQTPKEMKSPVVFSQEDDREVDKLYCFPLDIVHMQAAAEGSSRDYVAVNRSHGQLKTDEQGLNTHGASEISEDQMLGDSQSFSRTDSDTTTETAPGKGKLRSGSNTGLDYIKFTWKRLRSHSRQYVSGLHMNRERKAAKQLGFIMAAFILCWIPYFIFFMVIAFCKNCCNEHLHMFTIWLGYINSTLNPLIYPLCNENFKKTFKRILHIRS

O=C1[C@@H]2[C@H]3CC[C@H](C3)[C@@H]2C(=O)N1C[C@@H]1CCCC[C@H]1CN1CCN(c2nsc3ccccc23)CC1 [Lurasidone]
reported affinity for histamine H1 receptor [1]: minimal to no affinity | Ki [2]: 29.7 nM | Sheehan Disability Scale (SDS) vs PBO ([3]; both LUR20-60 and LUR80-120 groups, LOCF): significant improvement over PBO | Responder rates (reduction in MADRS total score ≧50%) ([3]; lurasidone 20 to 60 mg/day): 53% | MADRS effect size vs PBO ([3]; lurasidone 20 to 60 mg/day): 0.51 | MADRS score reduction (change from baseline, MMRM) ([3]; lurasidone 20 to 60 mg/day): −15.4 | reduction in CGI-BP-S depression scores (MMRM) ([3]; lurasidone 20 to 60 mg/day): −1.8 | Responder rates (reduction in MADRS total score ≧50%) ([3]; lurasidone 80 to 120 mg/day): 51% | MADRS effect size vs PBO ([3]; lurasidone 80 to 120 mg/day): 0.51 | MADRS score reduction (change from baseline, MMRM) ([3]; lurasidone 80 to 120 mg/day): −15.4 | reduction in CGI-BP-S depression scores (MMRM) ([3]; lurasidone 80 to 120 mg/day): −1.7 | depressive symptoms compared to placebo ([3]; monotherapy, flexibly dosed at 20 to 60 mg/day or 80 to 120 mg/day): significantly reduced depressive symptoms | Ki ([4]; guinea pig, read-out: Binding Affinities (Ki; nM) Histamine H1): > 1000 nM | binding affinity for histamine H1 receptor (in words) ([4]; summary of Table 2): low or negligible binding affinity | QWB-SA score compared to placebo (endpoint ANCOVA) [5]: significant improvement
